From patent US20110263454A1, “Methods of Identifying Functional Characteristics of Promoters, Transcription Modifying Proteins and Transcription Modulating Agents” (Salk Institute for Biological Studies, priority 2008, published 2011)

What was measured:
SREBP1c promoter = test: NHR-promoter luciferase screen, SREBP1c promoter; format: cell-based, mouse; details: for Luc. act., normalized to lacZ / Normalized Luc. act., normalized to control: SREBP1c promoter, HR component without or with ligand; for mSREBP1-c promoter reporter activity: transcription factor +/- ligand, control = 1.00
Experimental: (§1) The use, feasibility, and reproducibility of the functional NHR-promoter screen in a 48-well format have been tested validated. Briefly, there were co-expressed 50 ng of each NHR/NHR homodimer or NHR/RXR heterodimer with 100 ng promoter/luciferase construct and 50 ng of LacZ (as a control for transfection efficiency) in CV-1 cells using Fugene HD (Roche) as a transfection reagent (alternatively or additionally, a CMV-YFP construct can be used as a transfection control). Each of the nuclear hormone receptors that were used in these experiments was cloned into a pcDNA3.1 vector and comprised a C-terminally linked V5H6 tag. Twenty-four hours after transfection, appropriate ligands were added, where applicable, (see Table 5 for various ligands and concentrations and after 48 hrs, samples were assayed for luciferase and LacZ activity. To measure for luciferase activity 15 ul of sample was added to 30 ul of luciferase buffer (20 mM tricine, 1.07 mM MgCarbonate, 2.67 mM MgSulfate, 0.1 mM Naz-EDTA, 5 mM DTT, 5 mM ATP, 0.15 mg/ml CoA, 0.5 mM Luciferin), mixed briefly, and run in a Perkin Elmer Victor 5 luminometer. Thus, the functional NHR-promoter screen was used to observe the transcriptional activity of 29 promoters from various physiological pathways including inflammation, lipid and sugar metabolism, cholesterol transport, xenobiotic metabolism, and circadian rhythm.
(§2) The promoters that facilitate transcription of the indicated gene products that were tested using the protocols described herein are listed in the first row of the table. The nuclear hormone receptors and, where applicable, ligands that were assayed for their transcriptional effects on the promoters are listed in the first column of the table. The data represent the luciferase activity of each sample normalized to both the lacZ activity of that sample and to a control, e.g., no NHR or ligand, as customary in the art. As described previously, these normalizations allow the transcriptional activity of each reporter cell to be compared to other samples.
(§3) Tables 7-40 show the transcriptional effects of the hormone receptors, and, where applicable, ligands (orphan receptors are screened without ligand), on each individual promoter. […] The control data of each table are shown in their last rows.

Bmal1 promoter = test: NHR-promoter luciferase screen, Bmal1 promoter; format: cell-based, mouse; details: for Luc. act., normalized to lacZ / Normalized Luc. act., normalized to control: Bmal1 promoter, HR component without or with ligand; for mBmal1 promoter reporter activity: transcription factor +/- ligand, control = 1.00; for regulation of the Bmal1 promoter: FIG. 2c, in words
Experimental: as §1, §2, §3

Molecule | Luc. act., normalized to lacZ (SREBP1c promoter) | Normalized Luc. act., normalized to control (SREBP1c promoter) | mSREBP1-c promoter reporter activity (SREBP1c promoter) | Luc. act., normalized to lacZ (Bmal1 promoter) | Normalized Luc. act., normalized to control (Bmal1 promoter) | mBmal1 promoter reporter activity (Bmal1 promoter) | regulation of the SREBP1c promoter (SREBP1c promoter; FIG. 2b, in words) | regulation of the Bmal1 promoter (Bmal1 promoter)
GR: Glucocorticoid Receptor (NR3C1), cDNA driver | 150.3 | 0.5 | 0.47 | 13.2 | 0.8 | 0.84 |  | 
PNR: Photoreceptor-specific Nuclear Receptor (NR2E3), cDNA driver | 265.7 | 0.8 | 0.82 | 7.6 | 0.5 | 0.49 |  | 
VDR: Vitamin D Receptor (NR1I1), cDNA driver | 460.1 | 1.4 | 1.43 | 22.0 | 1.4 | 1.40 |  | 
ERR1: Estrogen Related Receptor α (NR3B1, ERRa), cDNA driver | 316.8 | 1.0 | 0.98 | 13.6 | 0.9 | 0.87 |  | 
AR: Androsterone Receptor (NR3C4), cDNA driver | 418.4 | 1.3 | 1.30 | 13.5 | 0.9 | 0.86 |  | 
RXRa: Retinoic X Receptor α (NR2B1), cDNA driver | 521.9 | 1.6 | 1.62 | 11.8 | 0.8 | 0.75 |  | 
NR4a1: NR4a1 (NR4A1; NUR77), nuclear hormone receptor cDNA driver | 408.2 | 1.3 | 1.27 | 15.7 | 1.0 | 1.00 |  | 
TLX: Tailless (homolog of drosophila) (NR2E1), cDNA driver | 352.4 | 1.1 | 1.09 | 12.2 | 0.8 | 0.78 |  | 
PPARa: Peroxisome proliferator activated receptor α (NR1C1), cDNA driver | 935.6 | 2.9 | 2.90 | 8.1 | 0.5 | 0.52 |  | 
SF-1: Steroidogenic Factor 1 (NR5A1, SF1), cDNA driver | 916.0 | 2.8 | 2.84 | 11.4 | 0.7 | 0.73 |  | 
LXRb: Liver X Receptor β (NR1H2), cDNA driver (protein, UniProt P55055 1-460, looked up) Oxysterols receptor LXR-beta: MSSPTTSSLDTPLPGNGPPQPGAPSSSPTVKEEGPEPWPGGPDPDVPGTDEASSACSTDWVIPDPEEEPERKRKKGPAPKMLGHELCRVCGDKASGFHYNVLSCEGCKGFFRRSVVRGGARRYACRGGGTCQMDAFMRRKCQQCRLRKCKEAGMREQCVLSEEQIRKKKIRKQQQESQSQSQSPVGPQGSSSSASGPGASPGGSEAGSQGSGEGEGVQLTAAQELMIQQLVAAQLQCNKRSFSDQPKVTPWPLGADPQSRDARQQRFAHFTELAIISVQEIVDFAKQVPGFLQLGREDQIALLKASTIEIMLLETARRYNHETECITFLKDFTYSKDDFHRAGLQVEFINPIFEFSRAMRRLGLDDAEYALLIAINIFSADRPNVQEPGRVEALQQPYVEALLSYTRIKRPQDQLRFPRMLMKLVSLRTLSSVHSEQVFALRLQDKKLPPLLSEIWDVHE | 4020.7 | 12.5 | 12.48 | 17.4 | 1.1 | 1.11 | specific and strong activation | 
RORa: RAR-related Orphan Receptor α (NR1F1), cDNA driver (protein, UniProt P35398 1-523, looked up) Nuclear receptor ROR-alpha: MESAPAAPDPAASEPGSSGADAAAGSRETPLNQESARKSEPPAPVRRQSYSSTSRGISVTKKTHTSQIEIIPCKICGDKSSGIHYGVITCEGCKGFFRRSQQSNATYSCPRQKNCLIDRTSRNRCQHCRLQKCLAVGMSRDAVKFGRMSKKQRDSLYAEVQKHRMQQQQRDHQQQPGEAEPLTPTYNISANGLTELHDDLSNYIDGHTPEGSKADSAVSSFYLDIQPSPDQSGLDINGIKPEPICDYTPASGFFPYCSFTNGETSPTVSMAELEHLAQNISKSHLETCQYLREELQQITWQTFLQEEIENYQNKQREVMWQLCAIKITEAIQYVVEFAKRIDGFMELCQNDQIVLLKAGSLEVVFIRMCRAFDSQNNTVYFDGKYASPDVFKSLGCEDFISFVFEFGKSLCSMHLTEDEIALFSAFVLMSADRSWLQEKVKIEKLQQKIQLALQHVLQKNHREDGILTKLICKVSTLRALCGRHTEKLMAFKAIYPDIVRLHFPPLYKELFTSEFEPAMQIDG | 410.8 | 1.3 | 1.28 | 115.6 | 7.4 | 7.40 |  | specific activation
RORg: RAR-related Orphan Receptor γ (NR1F3), cDNA driver (protein, UniProt P51449 1-518, looked up) Nuclear receptor ROR-gamma: MDRAPQRQHRASRELLAAKKTHTSQIEVIPCKICGDKSSGIHYGVITCEGCKGFFRRSQRCNAAYSCTRQQNCPIDRTSRNRCQHCRLQKCLALGMSRDAVKFGRMSKKQRDSLHAEVQKQLQQRQQQQQEPVVKTPPAGAQGADTLTYTLGLPDGQLPLGSSPDLPEASACPPGLLKASGSGPSYSNNLAKAGLNGASCHLEYSPERGKAEGRESFYSTGSQLTPDRCGLRFEEHRHPGLGELGQGPDSYGSPSFRSTPEAPYASLTEIEHLVQSVCKSYRETCQLRLEDLLRQRSNIFSREEVTGYQRKSMWEMWERCAHHLTEAIQYVVEFAKRLSGFMELCQNDQIVLLKAGAMEVVLVRMCRAYNADNRTVFFEGKYGGMELFRALGCSELISSIFDFSHSLSALHFSEDEIALYTALVLINAHRPGLQEKRKVEQLQYNLELAFHHHLCKTHRQSILAKLPPKGKLRSLCSQHVERLQIFQHLHPIVVQAAFPPLYKELFSTETESPVGLSK | 644.8 | 2.0 | 2.00 | 58.9 | 3.8 | 3.77 |  | specific activation
HNF4a: Hepatocyte Nuclear Factor α (NR2A1), cDNA driver (protein, UniProt P41235 1-474, looked up) Hepatocyte nuclear factor …: MRLSKTLVDMDMADYSAALDPAYTTLEFENVQVLTMGNDTSPSEGTNLNAPNSLGVSALCAICGDRATGKHYGASSCDGCKGFFRRSVRKNHMYSCRFSRQCVVDKDKRNQCRYCRLKKCFRAGMKKEAVQNERDRISTRRSSYEDSSLPSINALLQAEVLSRQITSPVSGINGDIRAKKIASIADVCESMKEQLLVLVEWAKYIPAFCELPLDDQVALLRAHAGEHLLLGATKRSMVFKDVLLLGNDYIVPRHCPELAEMSRVSIRILDELVLPFQELQIDDNEYAYLKAIIFFDPDAKGLSDPGKIKRLRSQVQVSLEDYINDRQYDSRGRFGELLLLLPTLQSITWQMIEQIQFIKLFGMAKIDNLLQEMLLGGSPSDAPHAHHPLHPHLMQEHMGTNVIVANTMPTHLSNGQMCEWPRPRGQAATPETPQPSPPGGSGSEPYKLLPGAVATIVKPLSAIPQPTITKQEVI | 263.6 | 0.8 | 0.82 | 10.1 | 0.6 | 0.65 |  | 
